Results on two molecules are retold here after patent US20250114335A1, “METHODS AND COMPOSITIONS FOR THE TREATMENT OF EPILEPSY” (ARIZONA BOARD OF REGENTS ON BEHALF OF THE UNIVERSITY OF …, priority 2022, published 2025).

SMILES strings stand for the structures. Several values for one entry are separate records, joined by “and”; a condition that tells them apart may be missing. Equal entries are not always repeated.

Experiment [1] relates to B6-D/+ (Scn8a-N1768D) adult mice. To be noted: CBD-treated B6-D/+ males, comparison; cited from earlier work.
Experiment [2] deals with B6-D/D (Scn8a-N1768D) juvenile mice. To be noted: CBD-treated B6-D/D males, comparison; cited from earlier work.
Experiment [3] shares this test system. The experiment in a line: Survival and seizure frequency, B6-D/D juvenile mice. Type of experiment: in vivo, mouse. The source says:
Mouse strains: The C57BL/6J-N1768D congenic mouse (B6-D/+) was used for phenotyping, RNAseq, and BBB studies. In addition, a hybrid strain that was produced by backcross breeding to transfer the Scn8a-N1768D allele from the B6 to the C3H/HeJ strain background was used to further assess the effect of CND on survival and seizure frequency. After constructing an F1 by crossing male B6-D/+ heterozygotes to female C3H/HeJ, five rounds of backcrossing (N6) produced a […] and 98.5% C3H/HeJ-N1768D line (C3H-D/+). Sister-brother mating maintained the 98.5% C3H background. […] C3H-D/D mice have a delayed seizure onset (˜40-45 days) and an extended survival (65-70 days) with intermittent bouts of TCs (FIG. 1A).
Phenotyping: Female and male mice on both the B6 and C3H backgrounds were housed in sex-specific groups of 3-4 per cage in a pathogen-free mouse facility with a 14 h light/10 h dark cycle (lights turned on at 5 am). A 24/7 video monitoring system was utilized to collect seizure data, with infrared illumination to monitor behavior during the dark period. Seizures were counted as individual TCs. Adult mice were followed from the age of 6 weeks, a period of time well before seizure onset, in order to identify the day of seizure onset. A seizure bout was defined as a cluster of seizures on consecutive days, and a gap as a seizure-free period of 3 days or more.
Preparation of CND suspension for injections and oral dosing: Juvenile B6-D/D and adult B6-D/+ mice were given subcutaneous (s.c.) injections with either CND (2-4 mg/kg/day; doses that fall within the FDA-approved range for CND in both adults and children) or vehicle (VEH) (Sigma-Aldrich) (FIG. 1B). Oral dosing of adults was performed by thoroughly mixing 160 μl of suspension containing 1.28 mg of CND or VEH with 5 g of pure (organic) peanut butter in a petri dish. Mice were given 1 g pellet per mouse each day. Pellets were weighed each day to record the amount consumed, and 24/7 video was used to verify that each mouse was consuming the pellet. An average of 0.79 g (±0.36 g) was consumed by an adult mouse (˜20-25 g), corresponding to 9.1±4.2 mg/kg/day. No correlations were found for the amount of CND consumed and lifetime survival or number of TCs.
Survival and seizure frequency studies: B6-D/D mice were injected with CND (n=10) or VEH (n=10) at 15 days of age (P15) and followed to monitor TCs by 24/7 video recording until death (FIG. 1B). A separate set of 10 B6-D/D mice was administered a daily s.c. injection of 25 mg/kg/day phenytoin (PHT) suspension or VEH (US Pharmacopeia, Sigma-Aldrich). Oral administration of CND or VEH was initiated at the time of seizure onset (range P75-P85) for adult B6-D/+ females (N=10) and males (N=10) (FIG. 1B). Mice were monitored for seizures by 24/7 video recording until the time of death.

In the case of `C=C(C)[C@@H]1CCC(C)=C[C@H]1c1c(O)cc(CCCCC)cc1O` [CBD], the “standard effect size, survival” value in experiment [1] is on record as 0.50; in experiment [2], 0.35.

`O=C1NC(=O)C(c2ccccc2)(c2ccccc2)N1` [PHT, phenytoin]: the “survival of juveniles (in words)” value in experiment [3] (B6-D/D Juveniles) is “minor increase in survival that did not reach statistical significance”. Besides, in experiment [3] (B6-D/D juveniles, Treated), the “#TCs” value amounted to 55.9 TCs; the “#TCs/day (Life)” value amounted to 1.9 TCs/day; the “#TCs/day (PostTC)” value was 10.2±7.1 TCs/day and 10.2 TCs/day; the “#gaps” value stood at 1.2. Besides, in experiment [3] (B6-D/D juveniles, Treated), the “Age at Onset” value was determined as 22.2, the “Days with TCs” value is on record as 6.8 days, the gap days is listed as 5.2 days and the mean gap length came to 3.5. Besides, the “Age at Death” value in experiment [3] (B6-D/D juveniles, Treated, daily s.c. injection) was 30.1 ± 5.1 days and 30.1 days.
